Columns and labels:
[1] = Morphology and particle size by thermal field scanning electron microscopy (FE SEM); format: physicochemical; conditions: fused primary particles formed during crystallisation, FIG. 2
Source text: The morphology of crystalline mupirocin calcium dihydrate produced according to the procedure of Example 2 was examined by thermal field scanning electron microscopy (FE SEM). An FE SEM microscope, model JSM-7000F, manufactured by Jeol Ltd., Japan, was used in the inspection of samples. The FE SEM microscope was coupled with an EDS/INCA 350 (energy dispersive X-ray analyzer) manufactured by Oxford Instruments Ltd. The samples inspected by FE SEM were not coated with a conductive layer. […] Calcium mupirocin dihydrate crystallize in a columnar particle shape having a mean particle size from about 100 to about 700 nm. During the crystallisation process primary particles, i.e., crystals, are fused to form agglomerates (FIG. 2) having a mean particle size of about 10 μm. During the drying process, the agglomerates adhere to each other, forming aggregates having a mean particle size from about 30 μm to about 400 μm.

[2] = amorphous form, quoted description; cited from earlier work
[3] = amorphous form, quoted description; cited from earlier work; remark: listed apart in the source

| mean particle size of agglomerates [1] | Compound | thermal stability [2] | water solubility [3] |
| --- | --- | --- | --- |
| about 10 μm | C/C(=C\C(=O)OCCCCCCCCC(=O)O)C[C@@H]1OC[C@H](C[C@@H]2O[C@H]2[C@@H](C)[C@H](C)O)[C@@H](O)[C@H]1O [Calcium mupirocin dihydrate, mupirocin calcium dihydrate] |  |  |
|  | C/C(=C\C(=O)OCCCCCCCCC(=O)[O-])C[C@@H]1OC[C@H](C[C@@H]2O[C@H]2[C@@H](C)[C@H](C)O)[C@@H](O)[C@H]1O.C/C(=C\C(=O)OCCCCCCCCC(=O)[O-])C[C@@H]1OC[C@H](C[C@@H]2O[C@H]2[C@@H](C)[C@H](C)O)[C@@H](O)[C@H]1O.O.O.[Ca+2] [amorphous calcium salt of mupirocin] | poor thermal stability | sparingly water soluble |

Reference: patent US20110015413A1, “PROCESS FOR PREPARING CRYSTALLINE CALCIUM MUPIROCIN DIHYDRATE” (priority 2008, published 2011)
